This is an account of results in PMC7329800, “Reduction of the serotonin 5-HT1B and 5-HT2A receptor-mediated contraction of human pulmonary artery by the combined 5-HT1B receptor antagonist and serotonin transporter inhibitor LY393558” (Pharmacological Reports, 2020).

Several values for one entry are separate records, joined by “and”; a condition that tells them apart may be missing. Equal entries are not always repeated. Where two headings read alike, the source gives them in different places.

Assay [1] relates to human pulmonary arteries. The assay can be described thus: Contraction of isolated human pulmonary arteries by agonists alone (organ bath, cumulative concentration-response curves). The assay is classed as cell-based. Particulars: for EC50 / Emax: Homo sapiens. The method, then:
(§1) Lung tissue was received from 29 men and 5 women (mean age 65 ± 2 years) with lung carcinoma (without PAH) undergoing lobectomy or pneumonectomy. Before the operation, they received cephalosporins and heparin as anti-infection and antithrombotic prophylaxis, respectively. Isolation of hPAs has been described previously. When necessary, endothelium was disrupted by rubbing of the lumen with horse hair. Arterial rings (3–5 mm in length and 2–4 mm in outer diameter) were mounted in 10 ml organ baths containing Tyrode’s solution [17] gassed with 95% O2 and 5% CO2 (37 °C, pH 7.4). Resting tension ranged from 19.6 to 24.5 mN (equivalent to transmural pressure of ~ 16 mmHg). Muscle tension was recorded by a force displacement transducer (BIO-SYS-TECH). After equilibration, rings were exposed to high KCl (60 mM) Tyrode’s solution (equimolar substitution of NaCl by KCl) to check tissue viability and maximum contraction and to phenylephrine (1 µM) followed by acetylcholine (10 µM) to verify if the endothelium is intact. […]. Concentrations of antagonists and citalopram were taken from previous studies. In each preparation, only one experimental curve was determined.
(§2) Results are given as mean ± SEM from n patients. Contractile responses were shown as percentages of the response to KCl 60 mM. GraphPad Prism 5.0 software was used to plot the mean data as sigmoidal CRCs. CRCs were used to determine potency (pEC50) and maximal effect (Emax) of agonists.

In assay [2] the test system is human pulmonary arteries. Also on record: method as in PMID 19541711. The settings on record: hPAs, other studies; cited from earlier work.
Assay [3] concerns human pulmonary arteries. The assay can be described thus: Influence of antagonists/inhibitors on 5-HT-induced vasoconstriction of isolated human pulmonary arteries. The class given is cell-based. The settings on record: for rightward shift of the CRC for 5-HT (factor): ketanserin 0.1 µM, SB224289 0.2 µM, GR55562 1 µM. The method, then:
as §1, §2

Another assay has as its target T1, 5-HT2AR (Homo sapiens, UniProt P28223).
T1 construct: Arterial rings (3–5 mm in length and 2–4 mm in outer diameter) were mounted in 10 ml organ baths; from tissue; host or cells: human pulmonary artery rings from lung tissue removed at lobectomy or pneumonectomy
Put plainly: Influence of antagonists on α-methyl-5-HT-induced vasoconstriction of isolated human pulmonary arteries. The assay is classed as cell-based. The settings on record: for Tension (contractile response to α-methyl-5-HT in absolute terms): α-methyl-5-HT in presence of ketanserin 0.01 μM or LY393558 0.1 μM, control α-methyl-5-HT (DMSO). The method, then: (§3) Lung tissue was received from 29 men and 5 women (mean age 65 ± 2 years) with lung carcinoma (without PAH) undergoing lobectomy or pneumonectomy. Before the operation, they received cephalosporins and heparin as anti-infection and antithrombotic prophylaxis, respectively. Isolation of hPAs has been described previously. When necessary, endothelium was disrupted by rubbing of the lumen with horse hair. […] Muscle tension was recorded by a force displacement transducer (BIO-SYS-TECH). After equilibration, rings were exposed to high KCl (60 mM) Tyrode’s solution (equimolar substitution of NaCl by KCl) to check tissue viability and maximum contraction and to phenylephrine (1 µM) followed by acetylcholine (10 µM) to verify if the endothelium is intact. […] Concentrations of antagonists and citalopram were taken from previous studies. In each preparation, only one experimental curve was determined.
as §2

Another assay deals with T2, 5-HT1B/1DR (Homo sapiens, UniProt P28222).
T2 construct: Arterial rings (3–5 mm in length and 2–4 mm in outer diameter) were mounted in 10 ml organ baths; from tissue; host or cells: human pulmonary artery rings from lung tissue removed at lobectomy or pneumonectomy
The assay can be described thus: Influence of antagonists on 5-CT-induced vasoconstriction of isolated human pulmonary arteries. The class given is cell-based. Particulars: 5-CT in presence of SB224289 0.2 μM, GR55562 1 μM or LY393558 0.1 μM; control 5-CT (DMSO). The procedure:
as §3, with “(BIO-SYS-TECH).” for “(BIO-SYS-TECH). After equilibration, rings were exposed to high KCl (60 mM) Tyrode’s solution (equimolar substitution of NaCl by KCl) to check tissue viability and maximum contraction and to phenylephrine (1 µM) followed by acetylcholine (10 µM) to verify if the endothelium is intact.”
as §2

Assay [4] has as its target T3, thromboxane A2 (TP) receptor (Homo sapiens, UniProt P21731).
T3 construct: Arterial rings (3–5 mm in length and 2–4 mm in outer diameter) were mounted in 10 ml organ baths; from tissue; host or cells: human pulmonary artery rings from lung tissue removed at lobectomy or pneumonectomy
T3 sequence (P21731 1-343): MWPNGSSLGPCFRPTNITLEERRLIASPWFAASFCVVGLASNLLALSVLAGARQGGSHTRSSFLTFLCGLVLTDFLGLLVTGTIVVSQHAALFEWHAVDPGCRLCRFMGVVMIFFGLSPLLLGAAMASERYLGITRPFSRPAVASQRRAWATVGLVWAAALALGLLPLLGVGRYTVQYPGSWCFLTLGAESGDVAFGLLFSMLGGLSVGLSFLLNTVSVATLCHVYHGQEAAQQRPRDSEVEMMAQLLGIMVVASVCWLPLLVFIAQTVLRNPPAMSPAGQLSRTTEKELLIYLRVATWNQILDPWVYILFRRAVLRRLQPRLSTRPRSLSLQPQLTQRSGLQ
The assay can be described thus: Influence of LY393558 on U46619-induced vasoconstriction of isolated human pulmonary arteries. The assay is classed as cell-based. The procedure:
as §1
(§4) Results are given as mean ± SEM from n patients. Contractile responses were shown as percentages of the response to KCl 60 mM. GraphPad Prism 5.0 software was used to plot the mean data as sigmoidal CRCs. […]

The subject of another assay is α1-adrenoceptor. The assay can be described thus: Influence of LY393558 on phenylephrine-induced vasoconstriction of isolated human pulmonary arteries. The assay is classed as cell-based. The procedure:
as §1, §4

The target in the next assay is SERT. Particulars: cited from earlier work.
The target of the next assay is 5-HT2ARs. Also on record: method as in PMID 11734182. Particulars: read-out: pKi at 5-HT2ARs (converted); cited from earlier work.
Where [5] appears, read: agonist alone, DMSO vehicle control, endothelium-intact hPAs.
Where [6] appears, read: agonist alone, endothelium removed (-ENDO).
The mark [7] stands for this setting: agonist alone, endothelium-intact hPAs.
[8] abbreviates: 5-HT in presence of: citalopram 1 μM, SB224289 0.2 μM, GR55562 1 μM, ketanserin 0.1 μM or combinations, 45 min incubation, endothelium-intact.
Where [9] appears, read: SB224289 0.2 μM, GR55562 1 μM, ketanserin 0.1 μM, endothelium-intact.
[10] abbreviates: agonist alone (control of LY393558 experiment, Fig. 3), endothelium-intact hPAs.

T1 sequence (P28223 whole entry): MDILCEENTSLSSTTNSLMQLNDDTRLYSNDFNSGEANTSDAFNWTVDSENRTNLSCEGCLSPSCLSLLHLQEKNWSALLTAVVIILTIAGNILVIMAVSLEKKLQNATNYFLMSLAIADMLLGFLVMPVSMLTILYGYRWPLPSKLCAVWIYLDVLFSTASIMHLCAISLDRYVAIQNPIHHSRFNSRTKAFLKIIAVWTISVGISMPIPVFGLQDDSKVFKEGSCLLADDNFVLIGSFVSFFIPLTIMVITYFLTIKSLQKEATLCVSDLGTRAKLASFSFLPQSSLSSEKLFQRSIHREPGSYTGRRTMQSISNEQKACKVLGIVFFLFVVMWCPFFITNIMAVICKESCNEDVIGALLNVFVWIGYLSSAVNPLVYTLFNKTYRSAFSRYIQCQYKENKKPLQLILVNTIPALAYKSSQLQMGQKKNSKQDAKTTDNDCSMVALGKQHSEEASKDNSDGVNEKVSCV
T2 sequence (P28222 whole entry): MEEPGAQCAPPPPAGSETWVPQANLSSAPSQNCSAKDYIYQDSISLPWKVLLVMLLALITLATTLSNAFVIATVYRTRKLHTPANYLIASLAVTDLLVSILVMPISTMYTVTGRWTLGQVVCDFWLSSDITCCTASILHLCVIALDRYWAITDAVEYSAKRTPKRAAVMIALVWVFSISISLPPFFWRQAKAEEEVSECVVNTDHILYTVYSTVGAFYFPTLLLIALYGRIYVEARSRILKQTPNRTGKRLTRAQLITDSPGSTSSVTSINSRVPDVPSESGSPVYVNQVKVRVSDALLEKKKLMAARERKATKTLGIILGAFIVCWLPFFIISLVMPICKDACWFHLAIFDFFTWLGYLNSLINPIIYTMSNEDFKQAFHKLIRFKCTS

For orientation: pEC50 means −log10 of the EC50, conventionally taken in molar units. A low value points to a high EC50. With `NCCc1c[nH]c2ccc(C(N)=O)cc12` [5-CT, 5-carboxamidotryptamine], in the assay on human pulmonary arteries [1] (setting [5]), the “Emax (percentage of the response to 60 mM KCl)” value is listed as 73 ± 6%, the “Tension (contractile response in absolute terms)” value came to 8.0 ± 1.0 mN and the pEC50 is recorded as 6.36 ± 0.09. Moreover, the “efficacy lower than that of 5-HT” value in the assay on human pulmonary arteries [1] (hPAs, this study) is on record as 20%. Also, the “efficiency less than that of 5-HT” value with human pulmonary arteries [2] is on record as 50%.
As a reminder, the EC50 is the concentration needed to bring the measured effect to its halfway point. A high value points to a less potent agent. What is called Emax is the size of the effect at its maximum, as opposed to the concentration needed. Regarding `NCCc1c[nH]c2ccc(O)cc12` [5-HT, serotonin], the values for the EC50 with human pulmonary arteries [1] (setting [5]), in the assay on human pulmonary arteries [1] (setting [6]) and in the assay with human pulmonary arteries [1] (setting [7]) were 457 nM, 1700 nM and 631 nM, respectively. For the same molecule, the Emax in the assay with human pulmonary arteries [1] (read-out: Emax (percentage of the response to 60 mM KCl), agonist alone, DMSO vehicle control, endothelium-intact hPAs) turned out to be 82 ± 4%; in the assay on human pulmonary arteries [1] (read-out: Emax (percentage of the response to 60 mM KCl), agonist alone, endothelium removed (-ENDO)), 92 ± 4%; in the assay with human pulmonary arteries [1] (read-out: Emax (percentage of the response to 60 mM KCl), agonist alone, endothelium-intact hPAs), 94 ± 4%. Also, the “Tension (contractile response in absolute terms)” value with human pulmonary arteries [1] (setting [5]) is reported as 8.5 ± 1.8 mN; with human pulmonary arteries [1] (setting [6]) it was 9.4 ± 1.2 mN; with human pulmonary arteries [1] (setting [7]), 9.7 ± 1.0 mN.
In the case of `CN(C)CCCC1(c2ccc(F)cc2)OCc2cc(C#N)ccc21` (stereo not drawn) [Citalopram], the “Tension (contractile response to 5-HT in absolute terms)” value in the assay on human pulmonary arteries [3] (5-HT + citalopram 1 μM, endothelium removed (-ENDO)) amounted to 7.6 ± 1.3 mN; in the assay with human pulmonary arteries [3] (setting [8]) it was 8.9 ± 1.3 mN. For the same molecule, the “influence on the potency of 5-HT” value in the assay on human pulmonary arteries [3] (citalopram 1 µM, endothelium-denuded preparations) is recorded as “enhanced the potency of 5-HT”. Further, the “influence on the CRC for 5-HT” value in the assay on human pulmonary arteries [3] (citalopram 1 µM, endothelium-intact hPAs) is on record as “did not influence the CRC for 5-HT”.
For `CN(C)CCCc1cc(C(=O)Nc2ccc(-c3ccncc3)cc2)ccc1O` [GR55562], the “Tension (contractile response to 5-HT in absolute terms)” value with human pulmonary arteries [3] (setting [8]) stood at 7.2 ± 2.0 mN. Further, in the assay with human pulmonary arteries [3] (setting [9]), the “pA2 against 5-HT” value was 6.6 and 6.63. Moreover, the “rightward shift of the CRC for 5-HT (factor)” value with human pulmonary arteries [3] is reported as 5.
On to `O=C(c1ccc(F)cc1)C1CCN(CCn2c(=O)[nH]c3ccccc3c2=O)CC1` [Ketanserin, ketanserin], for which the “Tension (contractile response to 5-HT in absolute terms)” value in the assay on human pulmonary arteries [3] (setting [8]) was 7.7 ± 1.2 mN. For the same molecule, the “pA2 against 5-HT” value in the assay with human pulmonary arteries [3] (setting [9]) amounted to 7.40; with human pulmonary arteries [3] (SB224289 0.2 μM, GR55562 1 μM, ketanserin 0.1 μM, endothelium-intact, listed as ketanserin), 7.4. In the assay with human pulmonary arteries [3], the “rightward shift of the CRC for 5-HT (factor)” value amounted to 3. At 5-HT2AR (LY393558, ketanserin 0.01 µM (Discussion)), the “vasoconstriction induced by α-methyl-5-HT diminished by” value came out at 30%. For the same molecule, the “Tension (contractile response to α-methyl-5-HT in absolute terms)” value on 5-HT2AR was 9.7 ± 2.3 mN.
Broadly, the pA2 is the negative logarithm of the molar antagonist concentration that doubles the agonist concentration needed for the same response. A lower pA2 goes with a weaker antagonist. For the molecule `CC(C)N1Cc2cc(S(C)(=O)=O)ccc2N(CCN2CC=C(c3c[nH]c4cc(F)ccc34)CC2)S1(=O)=O` [LY393558], in the assay on human pulmonary arteries [3] (5-HT + LY393558 0.1 μM, control 5-HT (DMSO), endothelium-intact), the “Tension (contractile response to 5-HT in absolute terms)” value came out at 9.1 ± 1.7 mN. In the assay on human pulmonary arteries [3] (LY393558 0.1 μM, control 5-HT (DMSO), endothelium-intact), the “pA2 against 5-HT” value is 8.3 and 8.25. Besides, the “Tension (contractile response to 5-CT in absolute terms)” value at 5-HT1B/1DR is reported as 7.3 ± 2.0 mN. The “Tension (contractile response to α-methyl-5-HT in absolute terms)” value at 5-HT2AR is 10.5 ± 2.4 mN. In addition, in assay [4] (LY393558 0.1 µM), the “effect on the vasoconstrictory effects of U46619” value is “did not modify”. For the same molecule, the “pA2 at human TP receptors” value in [4] (from lack of effect of 0.1 µM on U46619 response) is recorded as less than 7.0. The “effect on the vasoconstrictory effects of phenylephrine” value in the assay on α1-adrenoceptor (LY393558 0.1 µM) was “did not modify”. In addition, the “pA2 at human α1 receptors” value in the assay with α1-adrenoceptor (from lack of effect of 0.1 µM on phenylephrine response) is recorded as less than 7.0. Besides, the Ki on SERT (read-out: Ki (SERT inhibition)) is approximately 1 nM; on 5-HT2ARs it was approximately 100 nM.
Consider `Cc1nc(-c2ccc(-c3ccc(C(=O)N4CCc5cc6c(cc54)C4(CCN(C)CC4)CO6)cc3)c(C)c2)no1` [SB224289], for which, in the assay with human pulmonary arteries [3] (setting [8]), the “Tension (contractile response to 5-HT in absolute terms)” value came to 7.0 ± 1.9 mN. Moreover, the “pA2 against 5-HT” value in the assay on human pulmonary arteries [3] (setting [9]) was 7.0 and 7.02. Also, the “Tension (contractile response to 5-CT in absolute terms)” value on 5-HT1B/1DR is given as 10.0 ± 3.3 mN. Besides, the “affinity for the SERT” value in the assay on SERT is “has no affinity for the SERT”.
With `CCCCC[C@H](O)/C=C/[C@@H]1[C@@H](C/C=C\CCCC(=O)O)[C@H]2CO[C@@H]1C2` [U46619], in the assay with human pulmonary arteries [1] (setting [10]), the “Emax (relative to the KCl-induced response)” value amounted to 109 ± 6% and the pEC50 is listed as 8.60 ± 0.10.
`CNC[C@H](O)c1cccc(O)c1` [phenylephrine, (–)-phenylephrine] showed a concentration for a half-maximal effect (EC50) in the assay on human pulmonary arteries [1] (setting [10]) of 3160 nM. For the same molecule, the Emax in the assay with human pulmonary arteries [1] (agonist alone (control of LY393558 experiment, Fig. 3), endothelium-intact hPAs, read-out: Emax (relative to the KCl-induced response)) stood at 68 ± 5%.
For `CC(N)Cc1c[nH]c2ccc(O)cc12` (stereo not drawn) [α-Methyl-5-HT, α-methyl-5-HT], in the assay with human pulmonary arteries [1] (setting [5]), the “Emax (percentage of the response to 60 mM KCl)” value was found to be 79 ± 5%, the “Tension (contractile response in absolute terms)” value is reported as 10.5 ± 1.0 mN and the pEC50 was found to be 5.89 ± 0.08.
